Results as given in patent publication US7407973B2, “Use of pirfenidone in therapeutic regimens” (Intermune, Inc., priority 2003, dated 2008).

Experiments:
Aurora-A = Aurora-A (Homo sapiens, UniProt O14965); assay: Enzymatic activity of human kinase in presence of pirfenidone; format: biochemical; conditions: percent of control activity in absence of pirfenidone, concentration not given
Procedure: (§1) Enzymatic activity of various human kinases was assayed in the presence and the absence of pirfenidone. Percent enzyme activity of various human enzymes in the presence of substrate and pirfenidone are shown in FIGS. 1-5, and in Table 2, below, where “percent enzyme activity” is the percent of the control activity (e.g., in the absence of pirfenidone): […]

Bmx = Bmx (Homo sapiens, UniProt P51813); assay: as above; format: biochemical; conditions: percent of control activity in absence of pirfenidone, concentration not given
Procedure: as §1

CDK1/cyclinB = CDK1/cyclinB (Homo sapiens, UniProt P06493); assay: as above; format: biochemical; conditions: percent of control activity in absence of pirfenidone, concentration not given
Procedure: as §1

CDK7/cyclinD3 = assay: as above; format: biochemical; conditions: percent of control activity in absence of pirfenidone, concentration not given
Procedure: as §1

CHK1 = CHK1 (Homo sapiens, UniProt O14757); assay: as above; format: biochemical; conditions: percent of control activity in absence of pirfenidone, concentration not given
Procedure: as §1

CHK2 = CHK2 (Homo sapiens, UniProt O96017); assay: as above; format: biochemical; conditions: percent of control activity in absence of pirfenidone, concentration not given
Procedure: as §1

CSK = CSK (Homo sapiens, UniProt P41240); assay: as above; format: biochemical; conditions: percent of control activity in absence of pirfenidone, concentration not given
Procedure: as §1

FGFR3 = FGFR3 (Homo sapiens, UniProt P22607); assay: as above; format: biochemical; conditions: percent of control activity in absence of pirfenidone, concentration not given
Procedure: as §1

Flt3 = Flt3 (Homo sapiens, UniProt P36888); assay: as above; format: biochemical; conditions: percent of control activity in absence of pirfenidone, concentration not given
Procedure: as §1

GSK3α = GSK3α (Homo sapiens, UniProt P49840); assay: as above; format: biochemical; conditions: percent of control activity in absence of pirfenidone, concentration not given
Procedure: as §1

JNK1 = JNK1 (Homo sapiens, UniProt P45983); assay: as above; format: biochemical; conditions: percent of control activity in absence of pirfenidone, concentration not given
Procedure: as §1

JNK2 = JNK2 (Homo sapiens, UniProt P45984); assay: as above; format: biochemical; conditions: percent of control activity in absence of pirfenidone, concentration not given
Procedure: as §1

MAPK2 = MAPK2 (Homo sapiens, UniProt P28482); assay: as above; format: biochemical; conditions: percent of control activity in absence of pirfenidone, concentration not given
Procedure: as §1

MAPKAP-K2 = MAPKAP-K2 (Homo sapiens, UniProt P49137); assay: as above; format: biochemical; conditions: percent of control activity in absence of pirfenidone, concentration not given
Procedure: as §1

MKK7β = MKK7β (Homo sapiens, UniProt O14733); assay: as above; format: biochemical; conditions: percent of control activity in absence of pirfenidone, concentration not given
Procedure: as §1

PDGFR = PDGFR (Homo sapiens, UniProt P16234); assay: as above; format: biochemical; conditions: percent of control activity in absence of pirfenidone, concentration not given
Procedure: as §1

PKBα = PKBα (Homo sapiens, UniProt P31749); assay: as above; format: biochemical; conditions: percent of control activity in absence of pirfenidone, concentration not given
Procedure: as §1

PKBβ = PKBβ (Homo sapiens, UniProt P31751); assay: as above; format: biochemical; conditions: percent of control activity in absence of pirfenidone, concentration not given
Procedure: as §1

PKBγ = PKBγ (Homo sapiens, UniProt Q9Y243); assay: as above; format: biochemical; conditions: percent of control activity in absence of pirfenidone, concentration not given
Procedure: as §1

PKCo = assay: as above; format: biochemical; conditions: percent of control activity in absence of pirfenidone, concentration not given
Procedure: as §1

PKCδ = PKCδ (Homo sapiens, UniProt Q05655); assay: as above; format: biochemical; conditions: percent of control activity in absence of pirfenidone, concentration not given
Procedure: as §1

PKCτ = assay: as above; format: biochemical; conditions: percent of control activity in absence of pirfenidone, concentration not given
Procedure: as §1

PKD2 = PKD2 (Homo sapiens, UniProt Q9BZL6); assay: as above; format: biochemical; conditions: percent of control activity in absence of pirfenidone, concentration not given
Procedure: as §1

PRAK = PRAK (Homo sapiens, UniProt Q8IW41); assay: as above; format: biochemical; conditions: percent of control activity in absence of pirfenidone, concentration not given
Procedure: as §1

ROCK-II = ROCK-II (Homo sapiens, UniProt O75116); assay: as above; format: biochemical; conditions: percent of control activity in absence of pirfenidone, concentration not given
Procedure: as §1

Rsk3 = Rsk3 (Homo sapiens, UniProt Q15349); assay: as above; format: biochemical; conditions: percent of control activity in absence of pirfenidone, concentration not given
Procedure: as §1

SAPK2β = SAPK2β (Homo sapiens, UniProt Q15759); assay: as above; format: biochemical; conditions: percent of control activity in absence of pirfenidone, concentration not given
Procedure: as §1

SGK = SGK (Homo sapiens, UniProt O00141); assay: as above; format: biochemical; conditions: percent of control activity in absence of pirfenidone, concentration not given
Procedure: as §1

ZAP-70 = ZAP-70 (Homo sapiens, UniProt P43403); assay: as above; format: biochemical; conditions: percent of control activity in absence of pirfenidone, concentration not given
Procedure: as §1

p70S6K = p70S6K (Homo sapiens, UniProt P23443); assay: as above; format: biochemical; conditions: percent of control activity in absence of pirfenidone, concentration not given
Procedure: as §1

STAT1 = assay: IFN-γ-induced STAT1 tyrosine phosphorylation in ME180 cells (immunoblot); format: cell-based, human; conditions: serum-starved ME180 cells; 100 μg/ml Pirfenidone for 1 h, then 10 ng/ml IFN-γ for 0-60 min; anti-phospho STAT1 immunoblot
Procedure: ME180 cells were grown in DMEM supplemented with 10% heat inactivated fetal calf serum, 2 mM L-glutamine, streptomycin (100 μg/ml) and penicillin (100 units/ml). Briefly, cells were seeded at a density of 5×10^6 cells in 100 mm tissue culture dishes. After 24 hrs, cells were washed with phosphate-buffered saline (PBS) and incubated in serum free growth media for 16 hours, then treated with medium or with 100 μg/ml of Pirfenidone for 1 h before treating them with Actimune (10 ng/ml) for 0-10-20-40 and 60 min. At the end of incubation period, cells were lysed by incubation in 50 mM HEPES (pH 7.0) containing 100 mM NaCl, 1.2% Triton X-100, 10% glycerol, 1.5 mM MgCl2, 100 mM NaF, 10 mM sodium pyrophosphate, 1 mM sodium orthovanadate, 1 mM EGTA (ethylene glycol-bis-β-aminoethylether-tetraacetic acid), 1 mM DTT (dithiothreitol), 1 mM phenylmethylsulfonylfloride (PMSF), 0.15 unit/ml aprotinin, 10 μg/ml leupeptin, 10 μg/ml pepstatin. Lysates were clarified by centrifugation (12.000×g for 1 min.). Equal amounts (100 μg) total proteins were subjected to SDS-PAGE on 10% polyacrylamide gels to separate the proteins. The proteins were then electrophoretically transferred from the polyacrylamide gel onto a nitrocellulose sheet for overnight at 20 mAmp, and analyzed by immunoblotting with anti-phospho STAT1-specific antibody (antibody specific for phosphorylated STAT1). […]

Chain of ZAP-70 (P43403 whole entry): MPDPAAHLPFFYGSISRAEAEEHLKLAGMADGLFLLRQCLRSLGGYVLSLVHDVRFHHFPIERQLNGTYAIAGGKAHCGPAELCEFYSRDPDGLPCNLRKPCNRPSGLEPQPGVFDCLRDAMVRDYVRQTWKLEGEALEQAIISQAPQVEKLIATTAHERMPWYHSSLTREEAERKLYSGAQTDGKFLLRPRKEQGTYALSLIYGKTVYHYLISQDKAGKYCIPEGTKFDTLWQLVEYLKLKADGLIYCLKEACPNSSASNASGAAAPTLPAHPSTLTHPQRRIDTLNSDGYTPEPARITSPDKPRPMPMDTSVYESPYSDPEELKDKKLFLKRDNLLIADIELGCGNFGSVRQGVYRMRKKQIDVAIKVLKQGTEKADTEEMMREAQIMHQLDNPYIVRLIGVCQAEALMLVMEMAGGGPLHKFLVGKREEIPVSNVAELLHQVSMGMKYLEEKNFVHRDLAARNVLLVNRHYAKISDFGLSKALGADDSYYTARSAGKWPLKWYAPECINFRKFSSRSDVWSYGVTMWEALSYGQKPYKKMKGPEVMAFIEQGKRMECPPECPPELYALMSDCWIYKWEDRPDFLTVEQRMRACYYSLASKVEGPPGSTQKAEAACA
Chain of Flt3 (P36888 27-993): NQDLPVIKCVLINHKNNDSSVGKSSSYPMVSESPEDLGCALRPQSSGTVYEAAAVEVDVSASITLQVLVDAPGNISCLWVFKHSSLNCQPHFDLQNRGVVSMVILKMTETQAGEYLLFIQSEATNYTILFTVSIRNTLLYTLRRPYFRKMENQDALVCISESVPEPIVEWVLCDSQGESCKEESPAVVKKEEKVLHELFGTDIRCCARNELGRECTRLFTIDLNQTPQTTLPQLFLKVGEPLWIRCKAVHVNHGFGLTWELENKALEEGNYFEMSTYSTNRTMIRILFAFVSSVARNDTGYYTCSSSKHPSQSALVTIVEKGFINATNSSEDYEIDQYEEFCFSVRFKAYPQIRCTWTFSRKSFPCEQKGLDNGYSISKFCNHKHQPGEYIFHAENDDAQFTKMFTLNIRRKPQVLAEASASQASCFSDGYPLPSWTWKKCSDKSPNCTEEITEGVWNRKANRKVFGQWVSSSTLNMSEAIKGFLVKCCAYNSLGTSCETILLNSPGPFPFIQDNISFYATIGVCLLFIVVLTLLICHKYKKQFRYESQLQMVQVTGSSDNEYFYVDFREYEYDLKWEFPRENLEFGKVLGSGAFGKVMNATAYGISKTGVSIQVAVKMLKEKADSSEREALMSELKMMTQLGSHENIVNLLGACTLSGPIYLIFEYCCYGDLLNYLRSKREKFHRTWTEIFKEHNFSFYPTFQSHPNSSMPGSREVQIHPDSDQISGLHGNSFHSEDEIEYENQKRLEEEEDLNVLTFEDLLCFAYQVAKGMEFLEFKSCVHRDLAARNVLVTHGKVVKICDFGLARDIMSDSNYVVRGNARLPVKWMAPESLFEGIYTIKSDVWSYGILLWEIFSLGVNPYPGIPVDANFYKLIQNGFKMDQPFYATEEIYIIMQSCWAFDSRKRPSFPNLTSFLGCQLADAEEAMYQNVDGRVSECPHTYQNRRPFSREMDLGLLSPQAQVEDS
Chain of GSK3α (P49840 whole entry): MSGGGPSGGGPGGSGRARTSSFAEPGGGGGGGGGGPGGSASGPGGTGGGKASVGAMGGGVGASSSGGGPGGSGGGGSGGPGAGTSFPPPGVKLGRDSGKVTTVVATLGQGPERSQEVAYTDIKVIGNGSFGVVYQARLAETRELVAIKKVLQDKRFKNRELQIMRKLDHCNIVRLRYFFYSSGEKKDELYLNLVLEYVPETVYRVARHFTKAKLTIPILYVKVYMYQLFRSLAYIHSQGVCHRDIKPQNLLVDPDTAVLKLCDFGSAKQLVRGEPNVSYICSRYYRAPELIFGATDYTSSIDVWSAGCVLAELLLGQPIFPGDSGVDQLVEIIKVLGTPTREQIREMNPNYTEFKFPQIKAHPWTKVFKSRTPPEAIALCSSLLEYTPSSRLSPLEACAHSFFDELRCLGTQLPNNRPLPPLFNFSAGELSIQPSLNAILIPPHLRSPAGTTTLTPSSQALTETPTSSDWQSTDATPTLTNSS
Chain of p70S6K (P23443 whole entry): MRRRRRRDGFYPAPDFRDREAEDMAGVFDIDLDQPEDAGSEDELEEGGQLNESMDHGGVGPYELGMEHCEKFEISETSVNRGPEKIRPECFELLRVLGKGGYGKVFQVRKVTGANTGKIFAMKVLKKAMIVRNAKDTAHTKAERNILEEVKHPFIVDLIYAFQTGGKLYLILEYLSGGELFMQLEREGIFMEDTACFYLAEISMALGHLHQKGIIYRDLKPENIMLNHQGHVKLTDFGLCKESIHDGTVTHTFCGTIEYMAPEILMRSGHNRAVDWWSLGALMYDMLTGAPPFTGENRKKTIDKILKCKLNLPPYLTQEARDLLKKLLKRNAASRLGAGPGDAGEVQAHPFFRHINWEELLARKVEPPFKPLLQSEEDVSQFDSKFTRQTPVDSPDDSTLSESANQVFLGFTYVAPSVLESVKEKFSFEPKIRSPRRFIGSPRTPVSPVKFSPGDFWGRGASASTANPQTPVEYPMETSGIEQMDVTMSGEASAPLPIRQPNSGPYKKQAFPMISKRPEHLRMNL
Chain of Aurora-A (O14965 whole entry): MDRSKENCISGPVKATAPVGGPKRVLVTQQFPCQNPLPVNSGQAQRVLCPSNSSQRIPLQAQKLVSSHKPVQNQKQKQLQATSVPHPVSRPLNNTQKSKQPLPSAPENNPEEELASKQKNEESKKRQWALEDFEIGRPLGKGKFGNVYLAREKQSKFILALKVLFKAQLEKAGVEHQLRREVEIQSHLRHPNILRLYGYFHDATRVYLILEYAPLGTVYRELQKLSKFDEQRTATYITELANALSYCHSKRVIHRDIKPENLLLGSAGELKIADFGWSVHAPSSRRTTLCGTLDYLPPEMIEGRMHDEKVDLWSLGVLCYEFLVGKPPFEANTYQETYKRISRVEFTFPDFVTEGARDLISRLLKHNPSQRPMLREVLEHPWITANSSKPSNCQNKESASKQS
Chain of MAPKAP-K2 (P49137 whole entry): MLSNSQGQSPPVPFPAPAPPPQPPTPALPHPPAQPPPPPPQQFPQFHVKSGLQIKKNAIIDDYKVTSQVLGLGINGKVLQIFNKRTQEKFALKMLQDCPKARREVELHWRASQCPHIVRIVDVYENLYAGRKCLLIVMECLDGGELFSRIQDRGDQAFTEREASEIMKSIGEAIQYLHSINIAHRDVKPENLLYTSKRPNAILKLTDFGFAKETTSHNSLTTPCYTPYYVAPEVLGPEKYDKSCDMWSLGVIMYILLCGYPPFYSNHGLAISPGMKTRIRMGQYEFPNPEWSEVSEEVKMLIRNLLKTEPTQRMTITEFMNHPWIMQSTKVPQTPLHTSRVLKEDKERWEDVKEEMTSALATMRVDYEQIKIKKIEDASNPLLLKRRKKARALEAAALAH
Chain of Rsk3 (Q15349 whole entry): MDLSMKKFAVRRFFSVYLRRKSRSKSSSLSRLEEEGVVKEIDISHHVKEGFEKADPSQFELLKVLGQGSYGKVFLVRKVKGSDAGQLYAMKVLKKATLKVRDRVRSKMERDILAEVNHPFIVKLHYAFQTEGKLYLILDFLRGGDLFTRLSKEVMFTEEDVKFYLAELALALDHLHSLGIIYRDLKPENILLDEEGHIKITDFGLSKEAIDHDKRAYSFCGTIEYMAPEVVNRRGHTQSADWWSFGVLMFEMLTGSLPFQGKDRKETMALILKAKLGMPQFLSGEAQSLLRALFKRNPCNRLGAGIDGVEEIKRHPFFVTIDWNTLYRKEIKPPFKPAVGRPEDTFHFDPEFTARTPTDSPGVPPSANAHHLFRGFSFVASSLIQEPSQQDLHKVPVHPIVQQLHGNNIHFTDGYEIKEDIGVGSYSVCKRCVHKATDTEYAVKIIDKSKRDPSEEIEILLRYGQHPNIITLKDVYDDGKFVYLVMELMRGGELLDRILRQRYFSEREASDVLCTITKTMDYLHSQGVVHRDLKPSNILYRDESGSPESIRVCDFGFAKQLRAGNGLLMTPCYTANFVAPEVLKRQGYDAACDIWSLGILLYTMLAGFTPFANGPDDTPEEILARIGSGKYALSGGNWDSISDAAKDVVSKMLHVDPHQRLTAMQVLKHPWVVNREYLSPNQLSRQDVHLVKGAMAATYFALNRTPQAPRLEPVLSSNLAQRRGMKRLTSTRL
Chain of SGK (O00141 whole entry): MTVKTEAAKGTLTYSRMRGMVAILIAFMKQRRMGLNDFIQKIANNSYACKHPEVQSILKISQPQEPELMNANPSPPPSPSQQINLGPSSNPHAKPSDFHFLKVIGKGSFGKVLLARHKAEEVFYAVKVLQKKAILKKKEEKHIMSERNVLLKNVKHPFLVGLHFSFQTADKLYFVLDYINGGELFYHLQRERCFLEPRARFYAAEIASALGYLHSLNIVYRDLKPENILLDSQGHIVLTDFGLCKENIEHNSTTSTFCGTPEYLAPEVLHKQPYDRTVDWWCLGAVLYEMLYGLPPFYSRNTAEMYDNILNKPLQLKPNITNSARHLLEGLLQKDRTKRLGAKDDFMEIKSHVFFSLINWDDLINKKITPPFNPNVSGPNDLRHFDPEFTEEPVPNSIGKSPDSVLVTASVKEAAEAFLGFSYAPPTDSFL
Chain of JNK2 (P45984 whole entry): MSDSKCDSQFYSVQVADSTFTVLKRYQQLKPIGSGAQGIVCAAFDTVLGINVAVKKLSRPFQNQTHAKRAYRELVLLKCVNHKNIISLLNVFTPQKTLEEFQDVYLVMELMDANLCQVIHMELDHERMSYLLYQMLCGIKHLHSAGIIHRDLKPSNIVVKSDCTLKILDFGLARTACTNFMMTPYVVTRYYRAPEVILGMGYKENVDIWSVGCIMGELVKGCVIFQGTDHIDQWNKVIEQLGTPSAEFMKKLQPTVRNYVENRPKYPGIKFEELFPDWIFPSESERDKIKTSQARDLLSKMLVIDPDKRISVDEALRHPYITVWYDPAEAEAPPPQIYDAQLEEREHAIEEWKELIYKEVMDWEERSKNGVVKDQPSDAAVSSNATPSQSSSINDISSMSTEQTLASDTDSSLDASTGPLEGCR

% Activity (Aurora-A): 120%
% Activity (Bmx): 86%
% Activity (CDK1/cyclinB): 102%
% Activity (CDK7/cyclinD3): 92%
% Activity (CHK1): 105%
% Activity (CHK2): 84%
% Activity (CSK): 64%
% Activity (FGFR3): 104%
% Activity (Flt3): 103%
% Activity (GSK3α): 91%
% Activity (JNK1): 105%
% Activity (JNK2): 97%
% Activity (MAPK2): 100%
% Activity (MAPKAP-K2): 97%
% Activity (MKK7β): 105%
% Activity (PDGFR): 101%
% Activity (PKBα): 88%
% Activity (PKBβ): 88%
% Activity (PKBγ): 111%
% Activity (PKCo): 106%
% Activity (PKCδ): 102%
% Activity (PKCτ): 96%
% Activity (PKD2): 98%
% Activity (PRAK): 90%
% Activity (ROCK-II): 90%
% Activity (Rsk3): 115%
% Activity (SAPK2β): 74%
% Activity (SGK): 106%
% Activity (ZAP-70): 109%
% Activity (p70S6K): 96%
SMILES: Cc1ccc(=O)n(-c2ccccc2)c1 [pirfenidone, 5-methyl-1-phenyl-2-(1H)-pyridone]
Effect on IFN-γ-induced STAT1 tyrosine phosphorylation (STAT1): does not affect
